Laboratory results taken from patent US20230405028A1 (priority 2020, published 2023).
Where two headings read alike, the source gives them in different places.

Assays:
[1] = test system: COX-2; experiment: COX-2 in A-172 cells; format: cell-based; conditions: 5 μM psilocybin + 25 μM eugenol vs 5 μM psilocybin alone, eugenol alone 25 μM
Text: (§1) This experiment was designed to explore the synergistic interaction of 5HT2A agonist and a TRP agonists on receptors in the brain that are associated with depression and/or inflammation. […] The development of an inflammatory microenvironment is considered important to the initiation and progression of glioblastoma; however, therapeutic approaches to target inflammation have previously been limited. The abnormal function of IL-6 and IL-8 has been predicted to lead to glioblastoma.
(§2) Thus, unlike the experiments on HSIEC cells described above, no inflammatory treatment was applied to the A-172 cells. The A-172 cells were grown to […] confluence on T-25 flasks to allow a 96-hour duration of exposure of the cells to the compounds of interest

[2] = test system: BDNF; experiment: BDNF in A-172 cells; format: cell-based; conditions: escalating doses
Text: as §1, §2

[3] = test system: Human primary small intestinal epithelial cells (HSIEC)
[4] = test system: A-172 glioblastoma cells; experiment: MTT cell viability assay in A-172 cells

C=CCc1ccc(O)c(OC)c1 [eugenol]
effect on COX-2 [1]: increase | dose resulting in the greatest increase in BDNF [2]: 100 µM | effect on cell growth / cellular metabolic activity (MTT, words) [3]: slight inhibitory effect on cell growth | Cellular Metabolic Activity ([3]; 10 μM, 24 h): 0.064 | Cellular Metabolic Activity ([3]; 10 μM, 48 h): 0.168 | Cellular Metabolic Activity ([3]; 10 μM, 72 h): 0.346 | Cellular Metabolic Activity ([3]; 10 μM, 96 h): 0.632 | Cellular Metabolic Activity ([3]; 10 μM, time 0): 0.047 | Cellular Metabolic Activity ([3]; 50 μM, 24 h): 0.079 | Cellular Metabolic Activity ([3]; 50 μM, 48 h): 0.145 | Cellular Metabolic Activity ([3]; 50 μM, 72 h): 0.337 | Cellular Metabolic Activity ([3]; 50 μM, 96 h): 0.647 | Cellular Metabolic Activity ([3]; 50 μM, time 0): 0.038 | Cellular Metabolic Activity ([3]; 100 μM, 24 h): 0.075 | Cellular Metabolic Activity ([3]; 100 μM, 48 h): 0.136 | Cellular Metabolic Activity ([3]; 100 μM, 72 h): 0.346 | Cellular Metabolic Activity ([3]; 100 μM, 96 h): 0.662 | Cellular Metabolic Activity ([3]; 100 μM, time 0): 0.038 | Cellular Metabolic Activity ([3]; 200 μM, 24 h): 0.064 | Cellular Metabolic Activity ([3]; 200 μM, 48 h): 0.111 | Cellular Metabolic Activity ([3]; 200 μM, 72 h): 0.296 | Cellular Metabolic Activity ([3]; 200 μM, 96 h): 0.652 | Cellular Metabolic Activity ([3]; 200 μM, time 0): 0.041 | Cellular Metabolic Activity ([3]; 400 μM, 24 h): 0.059 | Cellular Metabolic Activity ([3]; 400 μM, 48 h): 0.128 | Cellular Metabolic Activity ([3]; 400 μM, 72 h): 0.242 | Cellular Metabolic Activity ([3]; 400 μM, 96 h): 0.549 | Cellular Metabolic Activity ([3]; 400 μM, time 0): 0.042 | Cellular Metabolic Activity ([3]; 800 μM, 24 h): 0.053 | Cellular Metabolic Activity ([3]; 800 μM, 48 h): 0.091 | Cellular Metabolic Activity ([3]; 800 μM, 96 h): 0.268 | Cellular Metabolic Activity ([3]; 800 μM, time 0): 0.042 | Cellular Metabolic Activity ([4]; 10 μM, 24 h): 0.137 | Cellular Metabolic Activity ([4]; 10 μM, 48 h): 0.234 | Cellular Metabolic Activity ([4]; 10 μM, 72 h): 0.329 | Cellular Metabolic Activity ([4]; 10 μM, 96 h): 0.533 | Cellular Metabolic Activity ([4]; 10 μM, time 0): 0.084 | Cellular Metabolic Activity ([4]; 25 μM, 24 h): 0.153 | Cellular Metabolic Activity ([4]; 25 μM, 48 h): 0.266 | Cellular Metabolic Activity ([4]; 25 μM, 72 h): 0.318 | Cellular Metabolic Activity ([4]; 25 μM, 96 h): 0.557 | Cellular Metabolic Activity ([4]; 25 μM, time 0): 0.083 | Cellular Metabolic Activity ([4]; 50 μM, 24 h): 0.146 | Cellular Metabolic Activity ([4]; 50 μM, 48 h): 0.229 | Cellular Metabolic Activity ([4]; 50 μM, 72 h): 0.327 | Cellular Metabolic Activity ([4]; 50 μM, 96 h): 0.542 | Cellular Metabolic Activity ([4]; 50 μM, time 0): 0.086 | Cellular Metabolic Activity ([4]; 100 μM, 24 h): 0.170 | Cellular Metabolic Activity ([4]; 100 μM, 48 h): 0.230 | Cellular Metabolic Activity ([4]; 100 μM, 72 h): 0.322 | Cellular Metabolic Activity ([4]; 100 μM, 96 h): 0.516 | Cellular Metabolic Activity ([4]; 100 μM, time 0): 0.082 | Cellular Metabolic Activity ([4]; 200 μM, 24 h): 0.170 | Cellular Metabolic Activity ([4]; 200 μM, 48 h): 0.224 | Cellular Metabolic Activity ([4]; 200 μM, 72 h): 0.313 | Cellular Metabolic Activity ([4]; 200 μM, 96 h): 0.431 | Cellular Metabolic Activity ([4]; 200 μM, time 0): 0.089 | Cellular Metabolic Activity ([4]; 400 μM, 24 h): 0.173 | Cellular Metabolic Activity ([4]; 400 μM, 48 h): 0.208 | Cellular Metabolic Activity ([4]; 400 μM, 72 h): 0.272 | Cellular Metabolic Activity ([4]; 400 μM, 96 h): 0.422 | Cellular Metabolic Activity ([4]; 400 μM, time 0): 0.088 | effect on cell growth (MTT, words) ([4]; A-172, psilocybin 80 μM): slight inhibitory effect
